In one experiment the target is human factor XIa (Homo sapiens, UniProt P03951). The experiment is described as follows: Factor XIa Assay. It counts as biochemical. The note with it: human factor XIa 0.04 nM, substrate GPR-AFC, 30 min pre-incubation, 25° C., pH 7.4; read-out: FXIa IC50. The method, then: (§1) The effectiveness of a compound of the present invention as an inhibitor of Coagulation factor XIa can be determined using a relevant purified serine protease, and an appropriate synthetic substrate. The rate of hydrolysis of the chromogenic or fluorogenic substrate by the relevant serine protease was measured both in the absence and presence of compounds of the present invention. Assays were conducted at rt or at 37° C. […] A decrease in the rate of fluorescence change in the presence of inhibitor is indicative of enzyme inhibition. Such methods are known to one skilled in the art. The results of this assay are expressed as the half-maximal inhibitory concentrations (IC50), or the inhibitory constant, Ki.
human factor XIa, sequence (P03951 388-625 limits assumed): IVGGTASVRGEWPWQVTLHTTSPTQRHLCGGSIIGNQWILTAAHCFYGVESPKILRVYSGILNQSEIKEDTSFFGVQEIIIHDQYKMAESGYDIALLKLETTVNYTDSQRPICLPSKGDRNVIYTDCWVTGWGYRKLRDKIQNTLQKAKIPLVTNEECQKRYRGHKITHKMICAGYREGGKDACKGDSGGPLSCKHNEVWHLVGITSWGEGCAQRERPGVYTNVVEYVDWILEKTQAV
human factor XIa, sequence (P03951 19-387 partner limits assumed): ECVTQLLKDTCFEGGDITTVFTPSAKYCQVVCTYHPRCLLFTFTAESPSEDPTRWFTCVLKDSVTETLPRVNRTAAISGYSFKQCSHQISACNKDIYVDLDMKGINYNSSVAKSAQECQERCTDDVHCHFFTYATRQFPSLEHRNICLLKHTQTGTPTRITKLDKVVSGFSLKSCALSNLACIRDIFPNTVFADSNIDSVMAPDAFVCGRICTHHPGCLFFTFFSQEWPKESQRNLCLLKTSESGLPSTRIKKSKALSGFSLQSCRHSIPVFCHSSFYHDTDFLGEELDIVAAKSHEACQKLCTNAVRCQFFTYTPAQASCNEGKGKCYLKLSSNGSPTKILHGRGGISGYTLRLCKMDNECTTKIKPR
Compounds were pre-incubated for 30 min at 25° C. with human (0.04 nM) factor XIa in 50 mM HEPES buffer with 150 mM sodium chloride, 5 mM calcium chloride, 0.1% PEG 8000, pH 7.4. factor XIa enzymatic activity was determined by addition of the substrate glycine-proline-arginine-7-amido-4-trifluoromethylcoumarin (GPR-AFC) and measurement of the fluorescence at 400/505 nm after a 60 min incubation at 25° C. The % inhibition for each data point was calculated from the data and analyzed using the log (inhibitor) vs. response four parameters equation to determine the half-maximal inhibitory concentrations (IC50). The IC50 were converted to equilibrium inhibitory constants (Ki) using the Cheng-Prusoff equation.

The target of a further experiment is T1, Human plasma kallikrein (Homo sapiens, UniProt P03952).
T1 construct: yields a heavy chain (371 amino acids) and a light chain (248 amino acids); The active site of plasma kallikrein is contained in the light chain; purchased Enzyme Research Laboratories
T1 sequence (P03952 391-638 limits assumed): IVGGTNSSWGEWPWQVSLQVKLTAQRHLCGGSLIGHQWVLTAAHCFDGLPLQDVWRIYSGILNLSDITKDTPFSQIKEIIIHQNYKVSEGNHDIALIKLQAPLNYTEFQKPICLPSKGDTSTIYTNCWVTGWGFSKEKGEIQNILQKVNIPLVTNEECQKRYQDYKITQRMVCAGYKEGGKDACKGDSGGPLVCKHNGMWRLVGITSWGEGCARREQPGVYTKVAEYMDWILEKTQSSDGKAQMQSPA
T1 sequence (P03952 20-390 partner limits assumed): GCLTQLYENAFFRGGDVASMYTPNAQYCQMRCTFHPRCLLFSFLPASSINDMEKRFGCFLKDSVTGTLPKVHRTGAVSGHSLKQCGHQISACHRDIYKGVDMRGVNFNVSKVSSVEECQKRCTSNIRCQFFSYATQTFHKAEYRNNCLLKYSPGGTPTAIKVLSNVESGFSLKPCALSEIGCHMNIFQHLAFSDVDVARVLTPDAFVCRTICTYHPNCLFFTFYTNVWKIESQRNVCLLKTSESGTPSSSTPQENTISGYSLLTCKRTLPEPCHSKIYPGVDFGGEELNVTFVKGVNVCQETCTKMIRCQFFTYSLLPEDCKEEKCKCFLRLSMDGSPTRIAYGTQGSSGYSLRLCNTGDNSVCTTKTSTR
The experiment is described as follows: Plasma Kallikrein Assay. It counts as biochemical. The conditions noted are these: purified Human plasma kallikrein 0.5 nM, substrate Acetyl-K-P-R-AFC, HEPES pH 7.4; read-out: PKal IC50. The method, then:
as §1, with “plasma kallikrein” for “Coagulation factor XIa”
Plasma kallikrein determinations were made in 50 mM HEPES buffer at pH 7.4 containing 150 mM NaCl, 5 mM CaCl2), and 0.1% PEG 8000 (polyethylene glycol; Fisher Scientific). Determinations were made using purified Human plasma kallikrein at a final concentration of 0.5 nM (Enzyme Research Laboratories) and the synthetic substrate, Acetyl-K—P—R-AFC (Sigma #C6608) at a concentration of […].
Times required to achieve equilibration between enzyme and inhibitor were determined in control experiments. […] IC50 was determined by inflection point from a four parameter logistic curve fit. Ki was calculated using the Cheng Prusoff equation, Ki=IC50/[…](1+([S]/Km)).

Structures are written as SMILES.

In general, IC50 refers to the concentration at which inhibition is half-maximal.

Regarding `Nc1c(C(=O)N2CCC[C@@]3(C2)OC(=O)Nc2ccc(Cl)c(F)c23)cnn1C1(c2ccc(F)cc2)CC1` [Example 28, (R)-1'-(5-Amino-1-(1-(4-fluorophenyl)cyclopropyl)-1H-pyrazole-4-carbonyl)-6-chloro-5-fluorospiro[benzo[d][1,3]oxazine-4,3'-piperidin]-2(1H)-one], the figures for the IC50 at human factor XIa and on Human plasma kallikrein were 112 nM and 2.9 nM, respectively.

`Nc1c(C(=O)N2CCC[C@@]3(C2)OC(=O)Nc2ccc(Cl)c(F)c23)cnn1Cc1ccncc1` [Example 32, (R)-1'-(5-Amino-1-(pyridin-4-ylmethyl)-1H-pyrazole-4-carbonyl)-6-chloro-5-fluorospiro[benzo[d][1,3]oxazine-4,3'-piperidin]-2(1H)-one]: the IC50 at human factor XIa came to 268 nM; at Human plasma kallikrein it was 1.7 nM.

As for `Nc1c(C(=O)N2CCC[C@@]3(C2)OC(=O)Nc2ccc(Cl)c(F)c23)cnn1C1(C(F)(F)F)CC[C@@H]2C[C@@H]21` (single isomer, unassigned) [Example 56, (R)-1'-(5-Amino-1-((1S,2S or R,5R)-2-(trifluoromethyl)bicyclo[3.1.0]hexan-2-y1)-1H-pyrazole-4-carbonyl)-6-chloro-5-fluorospiro[benzo[d][1,3]oxazine-4,3'-piperidin]-2(1H)-one], the figures for the IC50 on human factor XIa and on Human plasma kallikrein were 932 nM and 2.9 nM, respectively.

Consider `COc1ccc(Cl)cc1-n1ncc(C(=O)N2CCC[C@@]3(C2)OC(=O)Nc2ccc(Cl)c(F)c23)c1N` [Example 94, (R)-1'-(5-Amino-1-(5-chloro-2-methoxyphenyl)-1H-pyrazole-4-carbonyl)-6-chloro-5-fluorospiro[benzo[d][1,3]oxazine-4,3'-piperidin]-2(1H)-one], for which the figures for the IC50 on human factor XIa and at Human plasma kallikrein were 1290 nM and 11.8 nM, respectively.

As for `CC(C)(n1ncc(C(=O)N2CCC[C@@]3(C2)OC(=O)Nc2ccc(Cl)c(F)c23)c1N)C(F)(F)F` [Example 49, (R)-1'-(5-Amino-1-(1,1,1-trifluoro-2-methylpropan-2-y1)-1H-pyrazole-4-carbonyl)-6-chloro-5-fluorospiro[benzo[d][1,3]oxazine-4,3'-piperidin]-2(1H)-one], the IC50 at human factor XIa was 2930 nM; on Human plasma kallikrein, 16.9 nM.

With `Nc1c(C(=O)N2CCC[C@@]3(C2)OC(=O)Nc2ccc(Cl)c(F)c23)cnn1CC1CCCCC1` [Example 36, (R)-1'-(5-Amino-1-(cyclohexylmethyl)-1H-pyrazole-4-carbonyl)-6-chloro-5-fluorospiro[benzo[d][1,3]oxazine-4,3'-piperidin]-2(1H)-one], the IC50 came out at 140 nM on human factor XIa and 2 nM on Human plasma kallikrein.

Take `Nc1c(C(=O)N2CCC[C@@]3(C2)OC(=O)Nc2ccc(Cl)c(F)c23)cnn1C1Cc2ccccc2C1` [Example 38, (R)-1'-(5-Amino-1-(2,3-dihydro-1H-inden-2-yl)-1H-pyrazole-4-carbonyl)-6-chloro-5-fluorospiro[benzo[d][1,3]oxazine-4,3'-piperidin]-2(1H)-one]: the IC50 came to 449 nM at human factor XIa and 2.4 nM at Human plasma kallikrein.

In the case of `Nc1c(C(=O)N2CCC[C@@]3(C2)OC(=O)Nc2ccc(Cl)c(F)c23)cnn1-c1cccc(C(=O)O)c1` [Example 68, (R)-3-(5-Amino-4-(6-chloro-5-fluoro-2-oxo-1,2-dihydrospiro[benzo[d][1,3]oxazine-4,3'-piperidine]-1'-carbonyl)-1H-pyrazol-1-yl)benzoic acid], the IC50 was 1480 nM on human factor XIa and 13.5 nM on Human plasma kallikrein.

Regarding `Nc1c(C(=O)N2CCC[C@@]3(C2)OC(=O)Nc2ccc(Cl)c(F)c23)cnn1C12CC(C1)C2` [Example 19, (R)-1'-(5-Amino-1-(bicyclo[1.1.1]pentan-1-y1)-1H-pyrazole-4-carbonyl)-6-chloro-5-fluorospiro[benzo[d][1,3]oxazine-4,3'-piperidin]-2(1H)-one], the IC50 on human factor XIa was 2940 nM; on Human plasma kallikrein, 28.9 nM.

Regarding `CC(C1CC1)(n1ncc(C(=O)N2CCC[C@@]3(C2)OC(=O)Nc2ccc(Cl)c(F)c23)c1N)C(F)(F)F` (single isomer, unassigned) [Example 126, (R)-1'-(5-Amino-1-((R or S)-2-cyclopropyl-1,1,1-trifluoropropan-2-y1)-1H-pyrazole-4-carbonyl)-6-chloro-5-fluorospiro[benzo[d][1,3]oxazine-4,3'-piperidin]-2(1H)-one], the values for the IC50 on human factor XIa and on Human plasma kallikrein were 459 nM and 2.2 nM, respectively.

Consider `Nc1c(C(=O)N2CCC[C@@]3(C2)OC(=O)Nc2ccc(Cl)c(F)c23)cnn1C1CCCCC1` [Example 35, (R)-1'-(5-Amino-1-cyclohexyl-1H-pyrazole-4-carbonyl)-6-chloro-5-fluorospiro[benzo[d][1,3]oxazine-4,3'-piperidin]-2(1H)-one], for which the IC50 at human factor XIa came to 1080 nM; on Human plasma kallikrein, 15.7 nM.

As to `Nc1c(C(=O)N2CCC[C@@]3(C2)OC(=O)Nc2ccc(Cl)c(F)c23)cnn1Cc1cnccn1` [Example 54, (R)-1'-(5-Amino-1-(pyrazin-2-ylmethyl)-1H-pyrazole-4-carbonyl)-6-chloro-5-fluorospiro[benzo[d][1,3]oxazine-4,3'-piperidin]-2(1H)-one], the IC50 on human factor XIa is 601 nM; on Human plasma kallikrein, 3.4 nM.

In the case of `COc1ccccc1Cn1ncc(C(=O)N2CCC[C@@]3(C2)OC(=O)Nc2ccc(Cl)c(F)c23)c1N` [Example 40, (R)-1'-(5-Amino-1-(2-methoxybenzyl)-1H-pyrazole-4-carbonyl)-6-chloro-5-fluorospiro[benzo[d][1,3]oxazine-4,3'-piperidin]-2(1H)-one], the results for the IC50 on human factor XIa and at Human plasma kallikrein were 249 nM and 2.3 nM, respectively.

As for `Nc1c(C(=O)N2CCC[C@@]3(C2)OC(=O)Nc2ccc(Cl)c(F)c23)cnn1Cc1ccc(Cl)cc1` [Example 42, (R)-1'-(5-Amino-1-(4-chlorobenzyl)-1H-pyrazole-4-carbonyl)-6-chloro-5-fluorospiro[benzo[d][1,3]oxazine-4,3'-piperidin]-2(1H)-one], the IC50 at human factor XIa was found to be 504 nM; at Human plasma kallikrein, 1.4 nM.

As to `Nc1c(C(=O)N2CCC[C@@]3(C2)OC(=O)Nc2ccc(Cl)c(F)c23)cnn1CCN1CCOCC1` [Example 14, (R)-1'-(5-Amino-1-(2-morpholinoethyl)-1H-pyrazole-4-carbonyl)-6-chloro-5-fluorospiro[benzo[d][1,3]oxazine-4,3'-piperidin]-2(1H)-one], the IC50 on human factor XIa stood at 3180 nM; on Human plasma kallikrein, 42.8 nM.

In the case of `Nc1c(C(=O)N2CCC[C@@]3(C2)OC(=O)Nc2ccc(Cl)c(F)c23)cnn1Cc1cccc(Cl)c1` [Example 6, (R)-1'-(5-Amino-1-(3-chlorobenzyl)-1H-pyrazole-4-carbonyl)-6-chloro-5-fluorospiro[benzo[d][1,3]oxazine-4,3'-piperidin]-2(1H)-one], the IC50 at human factor XIa stood at 177 nM; at Human plasma kallikrein, 0.5 nM.

Take `Cc1cccc(Cn2ncc(C(=O)N3CCC[C@@]4(C3)OC(=O)Nc3ccc(Cl)c(F)c34)c2N)c1` [Example 45, (R)-1'-(5-Amino-1-(3-methylbenzyl)-1H-pyrazole-4-carbonyl)-6-chloro-5-fluorospiro[benzo[d][1,3]oxazine-4,3'-piperidin]-2(1H)-one]: the results for the IC50 at human factor XIa and on Human plasma kallikrein were 156 nM and 0.7 nM, respectively.

For `Nc1c(C(=O)N2CCC[C@@]3(C2)OC(=O)Nc2ccc(Cl)c(F)c23)cnn1CCOCC(F)(F)F` [Example 20, (R)-1'-(5-Amino-1-(2-(2,2,2-trifluoroethoxy)ethyl)-1H-pyrazole-4-carbonyl)-6-chloro-5-fluorospiro[benzo[d][1,3]oxazine-4,3'-piperidin]-2(1H)-one], the IC50 came to 882 nM at human factor XIa and 5.9 nM on Human plasma kallikrein.

For the compound `Nc1c(C(=O)N2CCC[C@@]3(C2)OC(=O)Nc2ccc(Cl)c(F)c23)cnn1CCC(F)(F)F` [Example 27, (R)-1'-(5-Amino-1-(3,3,3-trifluoropropyl)-1H-pyrazole-4-carbonyl)-6-chloro-5-fluorospiro[benzo[d][1,3]oxazine-4,3'-piperidin]-2(1H)-one], the IC50 at human factor XIa turned out to be 699 nM; at Human plasma kallikrein it was 18.8 nM.
